{"source": "patent US20260306640A1", "about": "“TECHNOLOGIES TARGETING CELL STATES” (Auron Therapeutics, Inc., priority 2023, published 2026)", "key": {"KAT2B": {"target": "KAT2B (Homo sapiens, UniProt Q92831)", "sequence (Q92831 whole entry)": "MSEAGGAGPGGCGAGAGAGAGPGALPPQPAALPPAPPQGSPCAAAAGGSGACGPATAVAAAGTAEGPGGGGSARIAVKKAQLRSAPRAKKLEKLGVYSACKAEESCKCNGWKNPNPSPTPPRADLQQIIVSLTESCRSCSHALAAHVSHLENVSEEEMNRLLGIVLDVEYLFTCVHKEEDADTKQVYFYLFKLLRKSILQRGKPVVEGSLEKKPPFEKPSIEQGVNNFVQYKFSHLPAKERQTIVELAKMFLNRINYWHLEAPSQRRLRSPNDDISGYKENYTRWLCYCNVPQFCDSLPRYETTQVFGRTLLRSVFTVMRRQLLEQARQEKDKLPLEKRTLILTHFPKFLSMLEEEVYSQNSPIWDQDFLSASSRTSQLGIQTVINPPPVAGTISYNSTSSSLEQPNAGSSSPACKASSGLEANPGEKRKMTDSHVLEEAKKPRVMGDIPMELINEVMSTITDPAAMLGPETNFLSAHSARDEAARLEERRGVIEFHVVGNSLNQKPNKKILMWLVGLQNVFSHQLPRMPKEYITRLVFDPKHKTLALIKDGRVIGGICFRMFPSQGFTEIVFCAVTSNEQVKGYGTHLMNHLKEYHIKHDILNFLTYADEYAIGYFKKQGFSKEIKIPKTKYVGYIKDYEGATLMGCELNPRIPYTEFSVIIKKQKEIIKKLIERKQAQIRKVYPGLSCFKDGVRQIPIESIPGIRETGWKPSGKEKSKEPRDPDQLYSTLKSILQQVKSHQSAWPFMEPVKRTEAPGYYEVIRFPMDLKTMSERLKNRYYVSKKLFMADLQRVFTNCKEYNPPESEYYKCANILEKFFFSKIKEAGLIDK", "test": "KAT2B reduction in LASCPC-01 cells", "assay_type": "cell-based", "design": "degrader, Western blot", "description": "MOLM-13 cells or NCI-H1048 cells were washed with PBS, then lysed with RIPA buffer containing 1×protease and phosphatase inhibitors (SantaCruz Biotechnologies Cat #sc-24948A). Protein was isolated by centrifugation at 12,000×g for 10 minutes at 4° C. and supernatant was collected. Protein was quantified via Bradford assay. Samples were diluted to 4 μg lysate in 16 μL RIPA buffer and then 4 μL of Jess Sample Buffer. Samples were heated at 95° C. for 5 minutes. Samples were loaded onto 12-230 kDa Jess™ Separation Module, 8×25 capillary cartridges (SM-W004, Biotechne). Antibodies loaded were: Primary antibody for KAT2A (GCN5L2 (C26A10) Rabbit mAb (3305, CST)) and for KAT2B (PCAF (C14G9)) Rabbit mAb (3378, CST) at 1:1000 and Anti-Rabbit Detection Module for Jess™ (Cat No #DM-001, Biotechne). Signal was detected by chemiluminescence.\nIn some embodiments, assessment was performed in LASCPC-01 cells, and reduction of KAT2A and KAT2B levels, including in some cases selectivity for one over the other, was confirmed. In some embodiments, DC50 and/or DC90 were assessed. In some embodiments, DC50 for various compounds was about or no more than about 1 nM. In some embodiments, DC90 for various compounds was about or no more than about 1 nM. In some embodiments, selectivity for the same polypeptide by a compound was observed across multiple types of cells (e.g., when assessed using DC50 and/or DC90). In some embodiments, certain compounds can provide improved properties and/or activities (e.g., potency). Data from certain assessments for certain compounds are presented below as examples (NT: not tested). It has been confirmed that various compounds described herein, including multiple compounds in Table 1, can be deemed to provide further improved properties and/or activities compared to the compound(s) in the table below for certain contexts, aspects, and/or uses."}, "NCI-H1048 cells": {"test_system": "NCI-H1048 cells", "test": "Cell growth inhibition (cell count, 8 days), small cell lung cancer NCI-H1048 cells", "assay_type": "cell-based", "conditions": "Homo sapiens, 192 h, cell count relative to DMSO control after 8 days, FIG. 1 (C)", "description": "FIG. 1. Provided compounds can provide various activities including inhibiting tumor growth in vivo. (A): Provided compounds can inhibit tumor growth in vivo. Nude Balb/c mice were inoculated with NCI-H1048 cells in Matrigel. Tumors were allowed to grow up to about 200 mm^3 and mice were then randomized into two groups. Mice were dosed intraperitoneally (i.p.) once per week with vehicle or 30 mg/kg compound 22. Tumor size was measured every three to four days and mice were sacrificed once vehicle tumors reached 2000 mm^3. Error bar is SEM. Dosing started at day 17 post tumor inoculation. (B): Provided technologies can reduce KAT2A and KAT2B levels and histone acetylation levels. […] Vehicle is DMSO. […] Cell count data relative to DMSO control after 8 days of treatment with compound 22 are presented as examples to confirm inhibition. GI50=6 nM. (D): Provided technologies can inhibit tumor growth in vivo. Nude balb/c mice inoculated with H1048 tumors were dosed intraperitoneally once per week (qw i.p.) with vehicle (HbCD) or compound 22. Average tumor volumes+/−SEM from 6 mice are represented. […] See also (A). […] Certain body weights relative to starting weight are presented as examples to confirm tolerability and safety. (F): Provided technologies can reduce KAT2A and KAT2B levels and histone acetylation levels in tumor in vivo. […]"}, "[1]": {"test_system": "NCI-H1048 human lung cancer xenograft", "test": "NCI-H1048 human lung cancer xenograft model, tumor growth inhibition (BALB/c nude mice)", "assay_type": "in vivo, mouse (BALB/c nude); human tumor cells", "conditions": "FIG. 1", "excerpt": "Among other things, provided technologies are useful for treating various diseases, disorders, or conditions. For example, in some embodiments, provided technologies are useful for treating cancer as confirmed in the present Example. In some embodiments, the present disclosure provides technologies for assessing various technologies, e.g., compounds, compositions, or methods. Among other things, the present Example provides technologies, e.g., xenograft model, for assessing various technologies. In some embodiments, provided technologies are assessed in tumor xenograft model. In some embodiments, provided technologies are assessed in NCI-H1048 human lung cancer xenograft model. […]\nAs described herein, various provided technologies are assessed in cancer xenograft models. […] A number of doses were assessed including 30 mg/kg. Assessed compounds were administered orally or via the intraperitoneal route. […]\nCell culture: NCI-H1048 tumor cells are maintained in vitro as monolayer culture in HITES Medium supplemented with 5% fetal bovine serum at 37° C. in an atmosphere of 5% CO2 in air. […] The cells growing in an exponential growth phase are harvested and counted for tumor inoculation. […]\nMeasurement Parameters: For routine monitoring, animals are monitored for tumor growth, behavior (e.g., mobility, food and water consumption), body weight (BW), eye/hair matting and other effects. […]"}}, "note": "Entries after “also recorded” stand apart in the source; their conditions may differ."}
{"smiles": "CN1C[C@H](Nc2cnn(C)c(=O)c2Br)C[C@H](c2ccc(C(=O)N3CCC(CN4CCN(c5ccc6c(c5)CN(C5CCC(=O)NC5=O)C6=O)CC4)CC3)cc2)C1", "note": "(stereo partly drawn) [Compound 22, 3-(5-(4-((1-(4-((3R,5R)-5-((5-bromo-1-methyl-6-oxo-1,6-dihydropyridazin-4-yl)amino)-1-methylpiperidin-3-yl)benzoyl)piperidin-4-yl)methyl)piperazin-1-yl)-1-oxoisoindolin-2-yl)piperidine-2,6-dione]", "values": [{"measurement": "DC50", "setting": "KAT2B; LASCPC-01, KAT2B", "value": 0.16, "unit": "nM"}, {"measurement": "EC90", "setting": "KAT2B; LASCPC-01, KAT2B, read-out: DC90 (the source's name)", "value": 0.42, "unit": "nM"}, {"measurement": "KAT2B levels", "setting": "KAT2B; LASCPC-01 cells, FIG. 3", "value": "potently reduce KAT2A and KAT2B levels"}, {"measurement": "GI50", "setting": "NCI-H1048 cells", "value": 6, "unit": "nM"}, {"measurement": "tumor growth inhibition in vivo", "setting": "[1]", "value": "tumor growth inhibition in vivo; also recorded: inhibit cell growth in vitro and in vivo"}]}
